Measured values published in patent US20230255864A1, “NOVEL COMPOSITIONS COMBINING HEMP DERIVATIVES AND AT LEAST ONE PEPTIDE AND USE THEREOF” (FRANCE COSMEPHYL-LAB, priority 2020, published 2023).

Columns and labels:
[1] = system: murine macrophages (RAW 267.4 cell line) stimulated with LPS from E. coli; assay: In vitro anti-inflammatory test: inhibition of NO production in LPS-stimulated murine macrophages (Griess reaction); type: cell-based
Source text: Low-grade inflammation is strongly implicated in degenerative processes in human skin such as photoaging and atopy. The reduction of low-intensity inflammatory reactions by topical products may be necessary in the event of cutaneous aggression, to obtain optimal healing and restore the physiological balance of human skin. In order to identify new anti-inflammatory candidates, an in vitro anti-inflammatory test was developed with a murine cell line: the murine macrophage test RAW 267.4. This test was used to monitor the inhibitory effects of chemical compounds or natural extracts on the low-intensity inflammatory cascade leading to overproduction of nitrogen oxide (NO) in the endothelial wall of blood vessels.
The study was carried out to evaluate the ability of cannabidiol, palmitoyl tripeptide-8 (active ingredient in Neutrazen™), and their mixture to inhibit the pro-inflammatory cascade leading to the production of NO in murine macrophages stimulated by liposaccharides (LPS).
The in vitro anti-inflammatory test is based on the ability of murine macrophages to generate a strong inflammatory response when stimulated by antigens such as LPS. Immobilized murine macrophages (RAW 267.4 cell line) are stimulated with LPS from E. coli and exposed for 24 hours. At the end of the incubation period, the production of NO is evaluated indirectly by measuring the accumulation of nitrite/nitrate, stable final products of the oxidation of NO, in the culture medium using a method spectrophotometric based on the Griess reaction.
(§1) MURINS RAW 267.4 Macrophage cell line (Sigma-Aldrich, No. P6110401, Lot. 091006), low number of passages (less than 50).
(§2) Complete medium: DMEM with stabilized L-glutamine (Dulbecco's Minimum Essential Medium, PAN BIOTECH. Lot 974251) supplemented with Penicillin 100 IU/ml and streptomycin 100 μg/m1 (PAN BIOTECH, Lot 225614), and 10% inactivated calf serum (PAN BIOTECH, Lot P460518), pH 7.2, freshly prepared, stored for less than 3 weeks.
(§3) Cannabidiol (CBD) is diluted in DMSO (10 mg/mL storage solution), and subjected to an ultrasonic bath for 20 minutes. The Neutrazen™ solution is diluted in PBS (Phosphate buffer saline, Sigma-Aldrich).
The negative control: DMSO 1% The positive control: Dexamethasone (Sigma-Aldrich) 1-5-10-50-100 μM.
(§4) RAW 267.4 murine macrophages were inoculated into 48-well tissue culture plates at a concentration of 1.10^5 cells/ml (200 μl/well) and incubated for 24 hours at 37° C. (5% CO2).
(§5) At the end of the incubation period, the culture medium was replaced with 200 μl of medium containing the appropriate concentrations of the material to be tested, and the cells were incubated at 37° C. (5% CO2) for one hour.
(§6) At the end of the incubation period, pro-inflammatory E. coli LPS was added to the cell cultures (1 μg/ml. Then the cells were incubated at 37° C. (5% CO2) for 24 hours.
The amount of NO released was measured in the culture supernatant by the Griess reaction. 100 μl of the supernatants were transferred into the wells of a 96-well tissue culture plate, and modified Griess reagent (SIGMA-ALDRICH) were added to each well. After a period of 15 min at room temperature, the Optical Density (OD) of each well was read at a wavelength of 540 nm by an Infinite M200 Pro fluorescence-luminescence reader (TECAN).
(§7) The concentrations of test material causing a 50% decrease in NO release (IC50 (NO release)) and a 50% decrease in cell viability (IC50 (cell viability)) respectively were calculated using TableCurve software Version 2.0.
The anti-inflammatory ratio corresponds to the ratio between anti-inflammatory activity and toxicity. It is expressed as follows: […]
Analysis of the anti-inflammatory activity and of the cell viability of the cannabidiol/palmitoyl tripeptide-8 (Neutrazen™) association in a mixture by isobologram analysis.

[2] = system: RAW 267.4 murine macrophages; assay: Cell viability of murine macrophages (WST-1 mitochondrial respiration), in parallel with NO release; type: cell-based; settings: Mus musculus, RAW267.4; non-linear regression of 3 series of experiments; positive control
Experimental: as §1, §2, §3, §4, §5, §6
In parallel with the evaluation of the release of NO, the cell viability was measured to validate the tests. Vital Stain Reagent WST-1 was used to measure cellular mitochondrial respiration. For this, the culture medium was decanted and 100 μl of WST-1 reagent ( 1/10 dilution) were added to each well. After an incubation period of 30 min at 37° C. (5% CO2), the Optical Density (OD) of each well was read at a wavelength of 450 nm by an Infinite M200 Pro fluorescence-luminescence reader (TECAN). The results obtained for the wells treated with the test material were compared with those of the untreated control wells (DMSO, 100% viability) and converted into percentage values.
Inhibition of NO release and inhibition of cell viability were expressed as a percentage relative to the negative controls: […]
as §7
Analysis of the anti-inflammatory activity and of the cell viability of the cannabidiol/palmitoyl tripeptide-8 (Neutrazen™) association in a mixture by isobologram analysis. For each concentration of Neutrazen™ (0.01, 0.025, 0.05 and 0.1%), different concentrations of CBD are tested (0.01, 0.025, 0.05, 0.1, 0.25, 0.5, 1 and 2.5%) to determine both the production of NO and cell viability.
The results obtained with the different mixtures of CBD and Neutrazen™ made it possible to calculate the pairs of concentrations corresponding to a 50% reduction in the production of NO and a 50% reduction in cell viability.

- IC50 ([1]; Mus musculus, RAW267.4, non-linear regression of 3 series of experiments, positive control, read-out: IC50-NO release): 2.98 µM
Compound: C[C@@H]1C[C@H]2[C@@H]3CCC4=CC(=O)C=C[C@]4(C)[C@@]3(F)[C@@H](O)C[C@]2(C)[C@@]1(O)C(=O)CO [Dexamethasone]
- Anti-inflammatory ratio ([1]; ratio between anti-inflammatory activity and toxicity (IC50 NO release and IC50 cell viability)): 64.65
- IC50 [2]: 193 ± 4.25 µM
